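These data come from cells grown in 96-well plates and exposed to compound for 48 hours at five concentrations. TGI is the concentration that stops growth completely.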
Experiments:
Assay in all cases: growth of human tumour cells (NCI), 48 h
[1] = test system: A498 renal
[2] = test system: OVCAR-4 ovarian
[3] = test system: SK-OV-3 ovarian
[4] = test system: CAKI-1 renal
[5] = test system: CCRF-CEM leukemia
[6] = test system: U251 CNS
[7] = test system: OVCAR-5 ovarian
[8] = test system: DU-145 prostate
[9] = test system: SNB-19 CNS
[10] = test system: SN12C renal
[11] = test system: IGROV1 ovarian
[12] = test system: UACC-257 melanoma
[13] = test system: LOX IMVI melanoma
[14] = test system: HCT-15 colon
[15] = test system: M14 melanoma
[16] = test system: NCI-H522 lung
[17] = test system: NCI-H23 lung
[18] = test system: HT29 colon
[19] = test system: MDA-MB-231 breast
[20] = test system: A549 NSCLC
[21] = test system: ACHN renal
[22] = test system: K-562 leukemia
[23] = test system: SF-539 CNS
[24] = test system: HL-60(TB) leukemia
[25] = test system: HS 578T breast
[26] = test system: MDA-N
[27] = test system: NCI-H226 lung
[28] = test system: BT-549 breast
[29] = test system: COLO 205 colon
[30] = test system: NCI-H460 lung
[31] = test system: UO-31 renal
[32] = test system: SK-MEL-5 melanoma
[33] = test system: EKVX NSCLC
[34] = test system: MALME-3M melanoma
[35] = test system: SK-MEL-2 melanoma
[36] = test system: NCI/ADR-RES ovarian
[37] = test system: HCT-116 colon
[38] = test system: MDA-MB-435
[39] = test system: HCC-2998 colon
[40] = test system: 786-0 renal
[41] = test system: RPMI-8226 leukemia
[42] = test system: TK-10 renal
[43] = test system: SNB-75 CNS
[44] = test system: T-47D breast
[45] = test system: SF-295 CNS
[46] = test system: MOLT-4 leukemia
[47] = test system: SK-MEL-28 melanoma
[48] = test system: UACC-62 melanoma
[49] = test system: KM12 colon
[50] = test system: HOP-62 NSCLC
[51] = test system: MCF7 breast
[52] = test system: PC-3 prostate
[53] = test system: HOP-92 NSCLC
[54] = test system: RXF 393 renal
[55] = test system: SW-620 colon
[56] = test system: SF-268 CNS
[57] = test system: SR leukemia
[58] = test system: OVCAR-8 ovarian
[59] = test system: OVCAR-3 ovarian

O=C1CC(Nc2ccccc2)c2c(Cl)sc(Cl)c21 (stereo unspecified)
TGI [1]: 6.21 µM | TGI [2]: 4.21 µM | TGI [3]: 26.3 µM | TGI [4]: 1.36 µM | TGI [5]: 0.442 µM | TGI [6]: 3.32 µM | TGI [7]: 6.23 µM | TGI [8]: 3 µM | TGI [9]: 20.5 µM | TGI [10]: 2.66 µM | TGI [11]: 3.44 µM | TGI [12]: 3.86 µM | TGI [13]: 2.09 µM | TGI [14]: 2.36 µM | TGI [15]: 3.4 µM | TGI [16]: 0.315 µM | TGI [17]: 3.75 µM | TGI [18]: 3.92 µM | TGI [19]: 3.42 µM | TGI [20]: 6 µM | TGI [21]: 2.41 µM | TGI [22]: > 100 µM | TGI [23]: 2.24 µM | TGI [24]: 1.36 µM | TGI [25]: > 100 µM | TGI [26]: 3.33 µM | TGI [27]: 24 µM | TGI [28]: 4.36 µM | TGI [29]: 2.68 µM | TGI [30]: 24.6 µM | TGI [31]: 2.57 µM | TGI [32]: 16.8 µM | TGI [33]: 3.4 µM | TGI [34]: 2.83 µM | TGI [35]: 4.37 µM | TGI [36]: 6.44 µM | TGI [37]: 2.5 µM | TGI [38]: 3.17 µM | TGI [39]: 3.39 µM | TGI [40]: 0.784 µM | TGI [41]: 0.0461 µM | TGI [42]: 3.26 µM | TGI [43]: 4.52 µM | TGI [44]: > 20 µM | TGI [45]: 19.5 µM | TGI [46]: 5.18 µM | TGI [47]: 3.54 µM | TGI [48]: 2.69 µM | TGI [49]: 1.94 µM | TGI [50]: 8.1 µM | TGI [51]: 5.21 µM | TGI [52]: 3.06 µM | TGI [53]: 3.13 µM

O=C1O/C(=C(\Br)c2ccc([N+](=O)[O-])cc2)c2ccccc21
TGI [1]: > 100 µM | TGI [2]: > 100 µM | TGI [3]: > 100 µM | TGI [4]: > 100 µM | TGI [5]: 62.7 µM | TGI [6]: > 100 µM | TGI [7]: > 100 µM | TGI [8]: > 100 µM | TGI [9]: > 100 µM | TGI [10]: > 100 µM | TGI [11]: > 100 µM | TGI [12]: > 100 µM | TGI [13]: > 100 µM | TGI [14]: > 81.5 µM | TGI [15]: > 100 µM | TGI [16]: > 88.8 µM | TGI [17]: > 100 µM | TGI [18]: > 88.5 µM | TGI [20]: > 100 µM | TGI [21]: > 100 µM | TGI [22]: > 100 µM | TGI [23]: > 100 µM | TGI [24]: > 67.1 µM | TGI [54]: > 100 µM | TGI [25]: > 100 µM | TGI [26]: > 100 µM | TGI [27]: > 100 µM | TGI [28]: > 100 µM | TGI [29]: > 100 µM | TGI [55]: > 100 µM | TGI [56]: > 100 µM | TGI [30]: > 100 µM | TGI [31]: > 100 µM | TGI [32]: > 100 µM | TGI [33]: > 100 µM | TGI [34]: > 100 µM | TGI [35]: > 100 µM | TGI [36]: > 100 µM | TGI [37]: > 100 µM | TGI [38]: > 100 µM | TGI [39]: > 100 µM | TGI [40]: > 100 µM | TGI [41]: > 61.8 µM | TGI [42]: > 100 µM | TGI [57]: > 71.4 µM | TGI [43]: > 100 µM | TGI [58]: > 100 µM | TGI [44]: > 100 µM | TGI [45]: > 100 µM | TGI [46]: > 69.1 µM | TGI [59]: > 100 µM | TGI [47]: > 100 µM | TGI [48]: > 100 µM | TGI [49]: > 100 µM | TGI [50]: > 100 µM | TGI [51]: > 100 µM | TGI [52]: > 100 µM | TGI [53]: > 100 µM
